IC50 and viability, T/C data for four compounds are collected here from PubChem BioAssay AID2060892 (Molecular Pharmacology Branch, DTP, NCI, 2025).

Each structure is given as a SMILES string. Several values for one entry are separate records, joined by “and”; a condition that tells them apart may be missing. Equal entries are not always repeated. A value given as a limit tells only on which side of the number the result lay.

This test deals with HOP-62 complex spheroids with HUVEC/MSC, viability. Briefly: Anticancer human tumor HOP-62 cell line growth inhibition [RAS].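 As to all read-outs here: spheroids exposed to agents for seven days before readout.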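 As to viability, T/C: 100% = DMSO vehicle control viability.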 As to conditions: for viability, T/C: stronger effect = lower value. The method in brief:
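Multi-cell-type spheroids: tumor cells plus HUVEC endothelial cells and mesenchymal stem cells. RAS-pathway inhibitors were combined with targeted agents, each dosed in half-log steps down from clinical Cmax, or from 10 microM when Cmax was unknown.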

Regarding `C[C@@H](NC(=O)c1ncnc(N)c1Cl)c1ncc(C(=O)Nc2cc(C(F)(F)F)c(Cl)cn2)s1` + C=CC(=O)N1CCN(c2nc(OCC3CCCN3C)nc3c(F)c(-c4nc(N)cc(C)c4C(F)(F)F)c(Cl)cc23)C(C)C1, the concentration for half-maximal inhibition (IC50) reads like this: (curve of first compound, second compound 0.00316 µM) > 10 µM; (curve of first compound, second compound 0.01 µM) 8.69 µM; (curve of first compound, second compound 0.0316 µM) 4.32 µM; (curve of first compound, second compound 0.1 µM) 7.86 µM; (curve of first compound, second compound 0.316 µM) > 10 µM; (curve of first compound, second compound 1 µM) > 10 µM. Besides, the viability, T/C (second compound 0.00316 µM, first compound 0.0316 µM) is 88.6%; the viability, T/C (second compound 0.00316 µM, first compound 0.1 µM) is 80.2%; the viability, T/C (second compound 0.00316 µM, first compound 0.316 µM) is 80.9%; the viability, T/C (second compound 0.00316 µM, first compound 1 µM) is 83.9%; the viability, T/C (second compound 0.00316 µM, first compound 3.16 µM) is 71.8%; the viability, T/C (second compound 0.00316 µM, first compound 10 µM) was 53.3%. Besides, the viability, T/C by setting is: (second compound 0.01 µM, first compound 0.0316 µM) 74.8%; (second compound 0.01 µM, first compound 0.1 µM) 67%; (second compound 0.01 µM, first compound 0.316 µM) 69.7%; (second compound 0.01 µM, first compound 1 µM) 67.1%; (second compound 0.01 µM, first compound 3.16 µM) 63.4%; (second compound 0.01 µM, first compound 10 µM) 48.1%. The viability, T/C (second compound 0.0316 µM, first compound 0.0316 µM) is 69.1%; the viability, T/C (second compound 0.0316 µM, first compound 0.1 µM) is 67%; the viability, T/C (second compound 0.0316 µM, first compound 0.316 µM) was 71.1%; the viability, T/C (second compound 0.0316 µM, first compound 1 µM) is 70%; the viability, T/C (second compound 0.0316 µM, first compound 3.16 µM) is 52.2%; the viability, T/C (second compound 0.0316 µM, first compound 10 µM) was 43.9%. Also, the viability, T/C is 69.2% (second compound 0.1 µM, first compound 0.0316 µM); 68.5% (second compound 0.1 µM, first compound 0.1 µM); 64% (second compound 0.1 µM, first compound 0.316 µM); 70.3% (second compound 0.1 µM, first compound 1 µM); 58% (second compound 0.1 µM, first compound 3.16 µM); 47.6% (second compound 0.1 µM, first compound 10 µM). Moreover, the viability, T/C reads like this: (second compound 0.316 µM, first compound 0.0316 µM) 67.5%; (second compound 0.316 µM, first compound 0.1 µM) 67%; (second compound 0.316 µM, first compound 0.316 µM) 69.8%; (second compound 0.316 µM, first compound 1 µM) 64.7%; (second compound 0.316 µM, first compound 3.16 µM) 57.7%; (second compound 0.316 µM, first compound 10 µM) 49.2%. Moreover, the viability, T/C runs as follows: (second compound 1 µM, first compound 0.0316 µM) 66.7%; (second compound 1 µM, first compound 0.1 µM) 63.3%; (second compound 1 µM, first compound 0.316 µM) 64.1%; (second compound 1 µM, first compound 1 µM) 63.6%; (second compound 1 µM, first compound 3.16 µM) 55.9%; (second compound 1 µM, first compound 10 µM) 52.4%.

Regarding `CCn1c(-c2cc(N3CCN(C)CC3)cnc2C(C)OC)c2c3cc(ccc31)-c1csc(n1)CC(NC(=O)C1CC1C)C(=O)N1CCCC(N1)C(=O)OCC(C)(C)C2` (centres undefined), the viability, T/C (compound 0.000949 µM) was 117% [middle of 8 runs]; the viability, T/C (compound 0.003 µM) is 99.9% [middle of 7 runs]; the viability, T/C (compound 0.00949 µM) is 73.3% [middle of 8 runs]; the viability, T/C (compound 0.03 µM) is 52.7% [middle of 8 runs]; the viability, T/C (compound 0.0949 µM) is 39.1% [middle of 8 runs]; the viability, T/C (compound 0.3 µM) was 39.4% [middle of 8 runs]. Besides, the half-inhibitory concentration (IC50) (compound alone, run of 07/09/2024) was 35.9 nM [middle of 8 runs].

For the compound `Cc1nc(N2CCC3(CC2)COC(C)C3N)c(CO)nc1Sc1ccnc(N)c1Cl` (centres undefined) + CCn1c(-c2cc(N3CCN(C)CC3)cnc2C(C)OC)c2c3cc(ccc31)-c1csc(n1)CC(NC(=O)C1CC1C)C(=O)N1CCCC(N1)C(=O)OCC(C)(C)C2, the IC50 is 1.88 µM (curve of first compound, second compound 0.000949 µM); 0.439 µM (curve of first compound, second compound 0.003 µM); 0.124 µM (curve of first compound, second compound 0.00949 µM); < 0.0316 µM (curve of first compound, second compound 0.03 µM); < 0.0316 µM (curve of first compound, second compound 0.0949 µM); < 0.0316 µM (curve of first compound, second compound 0.3 µM). For the same compound, the viability, T/C reads like this: (second compound 0.000949 µM, first compound 0.0316 µM) 110%; (second compound 0.000949 µM, first compound 0.1 µM) 98.2%; (second compound 0.000949 µM, first compound 0.316 µM) 50.6%; (second compound 0.000949 µM, first compound 1 µM) 63.7%; (second compound 0.000949 µM, first compound 3.16 µM) 56.7%; (second compound 0.000949 µM, first compound 10 µM) 21.8%. The viability, T/C is, setting by setting: (second compound 0.003 µM, first compound 0.0316 µM) 83.8%; (second compound 0.003 µM, first compound 0.1 µM) 66.5%; (second compound 0.003 µM, first compound 0.316 µM) 47.2%; (second compound 0.003 µM, first compound 1 µM) 45.6%; (second compound 0.003 µM, first compound 3.16 µM) 33.1%; (second compound 0.003 µM, first compound 10 µM) 18.4%. The viability, T/C by setting is: (second compound 0.00949 µM, first compound 0.0316 µM) 71.4%; (second compound 0.00949 µM, first compound 0.1 µM) 49.3%; (second compound 0.00949 µM, first compound 0.316 µM) 40.6%; (second compound 0.00949 µM, first compound 1 µM) 31.8%; (second compound 0.00949 µM, first compound 3.16 µM) 24%; (second compound 0.00949 µM, first compound 10 µM) 19%. Besides, the viability, T/C (second compound 0.03 µM, first compound 0.0316 µM) is 46.5%; the viability, T/C (second compound 0.03 µM, first compound 0.1 µM) is 40.6%; the viability, T/C (second compound 0.03 µM, first compound 0.316 µM) was 36.9%; the viability, T/C (second compound 0.03 µM, first compound 1 µM) is 24.6%; the viability, T/C (second compound 0.03 µM, first compound 3.16 µM) was 16.8%; the viability, T/C (second compound 0.03 µM, first compound 10 µM) was 20.9%. Further, the viability, T/C runs as follows: (second compound 0.0949 µM, first compound 0.0316 µM) 37.9%; (second compound 0.0949 µM, first compound 0.1 µM) 32.6%; (second compound 0.0949 µM, first compound 0.316 µM) 27.4%; (second compound 0.0949 µM, first compound 1 µM) 20.6%; (second compound 0.0949 µM, first compound 3.16 µM) 13.9%; (second compound 0.0949 µM, first compound 10 µM) 17.9%. The viability, T/C is, setting by setting: (second compound 0.3 µM, first compound 0.0316 µM) 37.1%; (second compound 0.3 µM, first compound 0.1 µM) 29.9%; (second compound 0.3 µM, first compound 0.316 µM) 28.8%; (second compound 0.3 µM, first compound 1 µM) 19.9%; (second compound 0.3 µM, first compound 3.16 µM) 18.4%; (second compound 0.3 µM, first compound 10 µM) 16%.

Regarding `O=C(c1ccc(F)c(F)c1Nc1ccc(I)cc1F)N1CC(O)([C@@H]2CCCCN2)C1`, the viability, T/C is 102% [middle of 4 runs] (compound 0.00316 µM); 105% (2×) and 96.9% and 97.5% (compound 0.01 µM); 102% [middle of 4 runs] (compound 0.0316 µM).

One may read the IC50 as the concentration that inhibits the measured activity by half. As usually defined, the viability, T/C is the result in the treated group divided by that in the control group, in per cent.
